Like-named read-outs stand apart in the source and are kept apart here.
How the values were obtained:
[1] = test system: Adult male Sprague-Dawley rats; test: Example 15: elevated plus maze of equol injected male rats; type: in vivo, rat; conditions: 0.250 mg/Kg/day sc, seven days, n = 8
Excerpt: The elevated plus maze is a behavioral test used to quantify anxiety-related behavior and identify anxiolytic drugs (Pellow S. et al., J Neurosci Methods, 14:149-147 (1985); Current Protocols In Neuroscience (1997) 8.3.1-8.3.15, John Wiley & Sons. NY, N.Y.). The test relies on the inherent conflict between exploration of a novel environment and avoidance of its aversive features. Normally, animals spend little time and make few entries into the open arms of the maze compared to the closed arms of the maze (Imhof J. T. et al., Behav Brain Res, 56:177-180 (1993). However, animals treated with anxiolytics, such as benzodiazepines (valium), spend more time in the open arms and the number of entries into the open arms reflects a decrease in anxiety-related behaviors (Pellow S. et al., J Neurosci Methods, 14:149-147 (1985); Current Protocols In Neuroscience (1997) 8.3.1-8.3.15, John Wiley & Sons. NY, N.Y.; Chopin P. et al., Psychopharm, 110:409-414 (1993).
Adult male Sprague-Dawley rats receive daily injections of either DMSO, racemic equol (0.250 mg/Kg/day), R-equol (0.250 mg/Kg/day), or S-equol (0.250 mg/Kg/day) in a total volume of 0.3 cc DMSO by subcutaneous injection. At the end of seven consecutive days of treatment the animals are tested in the elevated plus maze in order to quantify anxiety-related behaviors.

[2] = molecular target: T1, AR (Rattus norvegicus, UniProt P15207); test: Binding to the androgen receptor (prostate supernatant, [3H]DHT)
T1 construct: incubated with prostate supernatant and then passed through the 30 cm column; from tissue; host or cells: prostate supernatant
T1 sequence (P15207 1-902): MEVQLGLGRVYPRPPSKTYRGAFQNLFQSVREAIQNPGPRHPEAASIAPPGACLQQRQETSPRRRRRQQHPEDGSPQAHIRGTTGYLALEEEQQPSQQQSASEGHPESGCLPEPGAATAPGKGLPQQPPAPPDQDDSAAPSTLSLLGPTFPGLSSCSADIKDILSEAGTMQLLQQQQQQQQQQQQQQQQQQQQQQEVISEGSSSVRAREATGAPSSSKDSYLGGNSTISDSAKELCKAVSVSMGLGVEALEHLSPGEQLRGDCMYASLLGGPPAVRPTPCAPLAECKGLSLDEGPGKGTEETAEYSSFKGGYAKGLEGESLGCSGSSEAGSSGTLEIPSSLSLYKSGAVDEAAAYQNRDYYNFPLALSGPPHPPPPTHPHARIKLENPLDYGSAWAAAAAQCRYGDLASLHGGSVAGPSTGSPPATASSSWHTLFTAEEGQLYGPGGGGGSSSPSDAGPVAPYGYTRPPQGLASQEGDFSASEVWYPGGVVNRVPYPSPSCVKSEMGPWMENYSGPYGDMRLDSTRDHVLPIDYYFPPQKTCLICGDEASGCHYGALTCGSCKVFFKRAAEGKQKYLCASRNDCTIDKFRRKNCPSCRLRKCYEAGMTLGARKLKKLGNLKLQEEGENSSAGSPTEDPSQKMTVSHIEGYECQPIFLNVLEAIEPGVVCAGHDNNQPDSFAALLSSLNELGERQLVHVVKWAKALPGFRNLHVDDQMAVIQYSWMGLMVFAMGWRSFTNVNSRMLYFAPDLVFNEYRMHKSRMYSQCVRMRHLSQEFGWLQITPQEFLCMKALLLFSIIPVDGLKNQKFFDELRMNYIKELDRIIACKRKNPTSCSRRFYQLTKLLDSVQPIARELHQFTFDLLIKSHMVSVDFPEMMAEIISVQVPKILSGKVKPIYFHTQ

[3] = test system: Adult male Sprague-Dawley rats; test: Example 3: prostate, epididymis and body weight gain in male rats treated with racemic, R- or S-equol; type: in vivo, rat; conditions: for Body Wt Gain (g) / Epididymis (g) / Prostate (g): 0.25 mg/kg/day sc, seven days
Protocol: Adult male Sprague-Dawley rats are randomly assigned to […] groups and receive daily injections of either DMSO, a racemic mixture of equol at 0.250 mg/kg/day), R-equol at 0.250 mg/kg/day, or S-equol at 0.250 mg/kg/day. The total volume of each injection is 0.3 cc, administered sc at the nape of the rat's neck. After seven consecutive days of treatment, the rats are killed and the body weight gain during the injection period is determined.

[4] = test system: GDX males; test: Examples 5 and 6: gonadectomized (GDX) male rats treated with DHTP, equol or both; histology; type: in vivo, rat
Protocol: One week following arrival, animals are gonadectomized (GDX) under isoflurane anesthesia and allowed to recover for 7 days. Following recovery, animals are assigned to the following groups 1) DMSO, 2) DHTP (2 mg/1 kg), 3) racemic equol (0.25 mg/kg), or 4) both DHTP and racemic equol. Injections are given subcutaneously daily for 4 days. Animals are killed via decapitation and trunk blood and tissues are collected for analysis.
Tissues, including prostate, testes and epididymis, are removed from the animal, dissected free of fat and connective tissues, weighed, fixed by immersion in 4% paraformaldehyde, and then sectioned at 15 μm on a cryostat. Tissue sections are mounted on charged slides (Superfrost Plus, Fisher Scientific, Pittsburgh, Pa.) prewarmed to 23° C., and stained with hematoxylin and eosin (H&E), dehydrated in ascending alcohol and cleared with xylene.

| SMILES | Center Area [1] | Open Arm Time [1] | binding to the androgen receptor [2] | binding to the androgen receptor ([2]; listed as Equol racemic) | Body Wt Gain (g) [3] | Epididymis (g) [3] | Prostate (g) [3] | decrease in body weight ([3]; equol experiments) | reduction in white adipose tissue deposition ([3]; racemic equol injections) | LH, in combination with DHTP ([4]; GDX males, DHTP+equol) | prostate weight, concomitant treatment with DHTP ([4]; GDX males, DHTP+equol) | LH ([4]; GDX males, given alone, vs DMSO) | prostate weight ([4]; GDX males, given alone, vs vehicle-treated GDX) | plasma 5α-DHT, co-treatment of DHTP-treated animals with equol ([4]; GDX+equol+DHTP vs GDX+DHTP) |
| --- | --- | --- | --- | --- | --- | --- | --- | --- | --- | --- | --- | --- | --- | --- |
| Oc1ccc(C2COc3cc(O)ccc3C2)cc1 (racemic) [equol, 7-hydroxy-3(4′hydroxyphenyl)-chroman] | 37.1 ± 6.3 s | 40.9 ± 7.0 s | does not compete with 5α-DHT for the AR | does not bind the androgen receptor | 56.1 (±3.7) g | 0.89 (±.03) g | 0.38 (±0.02) g | around 10% | around 36% | blocks the negative feedback effects of DHTP on LH secretion | blocks the effects of DHTP | no effect on LH levels | no effect alone on prostate size | further elevated, although, not significantly |
| Oc1ccc([C@@H]2COc3cc(O)ccc3C2)cc1 [R-equol] | 36.4 ± 7.6 s | 50.0 ± 10.0 s | does not bind the androgen receptor |  | 45.6 (±5.5) g | 0.85 (±0.04) g | 0.31 (±0.02) g |  |  |  |  |  |  |  |
